The supplement of paper PMC10307832

Tests used:
Assay in all cases: relative viability (nuclei count vs DMSO), 5 days (fraction); higher = more cells survive
[1] = compound: COC1=C(C=C(C=C1)C2=CC3=NC=CN3C(=N2)NC4=C(C=CC=N4)C(=O)N)OC [BAY61-3606] + Cc1cc(Nc2cc(N3CCN(C)CC3)nc(Sc3ccc(NC(=O)C4CC4)cc3)n2)n[nH]1 [Tozasertib] (partner 0.1 µM)
Procedure, shortened: (§1)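 Lung cancer cell lines were pin-tool dosed in 1536-well plates on the day after seeding, with either a lone drug or a fixed anchor-drug dose plus five library-drug doses (not always all listed) in √10 steps. Nuclei were counted on 4× images after 5 days. Relative viability is the ratio of treated-well to vehicle-well nuclei counts, with each value a median of duplicate plates.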

[2] = compound: COc1cccc2c1C(=O)c1c(O)c3c(c(O)c1C2=O)C[C@@](O)(C(=O)CO)C[C@@H]3O[C@H]1C[C@H](N)[C@H](O)[C@H](C)O1 [Doxorubicin] + CC1(C)CCC(c2ccc(Cl)cc2)=C(CN2CCN(c3ccc(C(=O)NS(=O)(=O)c4ccc(N[C@H](CCN5CCOCC5)CSc5ccccc5)c(S(=O)(=O)C(F)(F)F)c4)cc3)CC2)C1 [Navitoclax] (partner 0.5 µM)
Procedure, shortened: as §1

[3] = compound: COc1cccc2c1C(=O)c1c(O)c3c(c(O)c1C2=O)C[C@@](O)(C(=O)CO)C[C@@H]3O[C@H]1C[C@H](N)[C@H](O)[C@H](C)O1 [Doxorubicin] + C[C@@H](Oc1cc(-c2cnn(C3CCNCC3)c2)cnc1N)c1c(Cl)ccc(F)c1Cl [Crizotinib] (partner 1 µM)
Procedure, shortened: as §1

[4] = compound: COc1cccc2c1C(=O)c1c(O)c3c(c(O)c1C2=O)C[C@@](O)(C(=O)CO)C[C@@H]3O[C@H]1C[C@H](N)[C@H](O)[C@H](C)O1 [Doxorubicin] + Nc1nc2[nH]cc(CCc3ccc(C(=O)N[C@@H](CCC(=O)O)C(=O)O)cc3)c2c(=O)[nH]1 [Pemetrexed] (partner 0.2 µM)
Procedure, shortened: as §1

Cell Line	relative viability ([1]; first compound 0.02 µM)	relative viability ([1]; first compound 0.06325 µM)	relative viability ([1]; first compound 0.2 µM)	relative viability ([1]; first compound 0.6325 µM)	relative viability ([1]; first compound 2 µM)	relative viability ([2]; first compound 0.001 µM)	relative viability ([2]; first compound 0.003162 µM)	relative viability ([2]; first compound 0.01 µM)	relative viability ([2]; first compound 0.1 µM)	relative viability ([3]; first compound 0.001 µM)	relative viability ([3]; first compound 0.003162 µM)	relative viability ([3]; first compound 0.01 µM)	relative viability ([3]; first compound 0.03162 µM)	relative viability ([3]; first compound 0.1 µM)	relative viability ([4]; first compound 0.001 µM)	relative viability ([4]; first compound 0.003162 µM)	relative viability ([4]; first compound 0.01 µM)	relative viability ([4]; first compound 0.03162 µM)	relative viability ([4]; first compound 0.1 µM)	relative viability ([2]; first compound 0.03162 µM)
RERF-LC-KJ	0.532	0.435	0.399	0.368	0.279	1.05	0.765	1.12	1.05	0.872	0.846	0.865	0.956	0.7	0.458	0.496	0.418	0.39	0.382	–
NCI-H647	0.339	0.176	0.167	0.258	0.131	1.17	1.4	0.992	0.517	1.02	1.26	0.84	0.375	0.17	0.211	0.168	0.196	0.127	0.163	0.65
LU99A	0.279	0.216	0.217	0.239	0.177	0.783	0.919	0.867	0.801	0.548	0.522	0.671	0.417	0.46	0.199	0.186	0.191	0.173	0.165	0.554
NCI-H460	0.447	0.0447	0.139	0.0713	0.0263	1.07	1.18	0.945	0.0158	0.887	0.882	0.273	0.0178	0.006	0.0538	0.064	0.0574	0.0641	0.0392	0.0444
PC-14	0.597	0.637	0.5	0.568	0.174	0.997	1.1	0.973	0.945	0.893	0.985	0.962	0.892	0.944	0.139	0.135	0.118	0.0995	0.0845	1.01
PC-3 [JPC-3]	–	0.891	0.889	0.837	0.613	0.746	0.79	0.703	0.819	0.999	1	0.977	0.931	0.936	1.2	1.12	1.15	1.05	0.663	0.802
NCI-H1944	0.256	0.224	0.239	0.249	0.215	1.05	1.13	1.03	1.19	1.09	1.16	1.03	1	1.14	0.606	0.602	0.643	0.504	0.495	0.977
NCI-H1755	0.681	0.422	0.49	0.438	0.403	1	1.03	0.927	1.02	0.867	0.943	0.862	0.915	0.887	0.419	0.408	0.419	0.492	0.467	0.991
H3255	0.6	0.64	0.54	0.649	0.701	0.603	0.617	0.53	0.289	0.917	0.88	0.804	0.608	0.45	0.526	0.558	0.559	0.535	0.523	0.457
201T	1	0.593	0.774	0.565	0.378	1.16	1.19	1.2	1.21	1	1.07	1.05	1.05	1.04	0.344	0.325	0.352	0.338	0.351	1.24
NCI-H2228	0.274	0.173	0.147	0.16	0.159	1.24	0.752	0.876	0.321	0.562	0.384	0.421	0.343	0.197	0.335	0.344	0.32	0.278	0.244	0.552
CAL-12T	0.289	0.305	0.198	0.303	0.165	1.09	1.16	1.24	0.182	0.671	0.507	0.566	0.182	0.116	1.1	1.22	1.03	0.38	0.248	0.423
NCI-H2085	0.809	0.531	0.546	0.481	0.345	1.28	1.24	1.09	1.01	0.924	0.97	0.943	0.648	0.63	0.904	0.943	0.939	1.1	0.802	0.882
NCI-H2023	0.359	0.225	0.232	0.197	0.118	0.956	1.05	0.886	0.16	0.598	0.679	0.36	0.0967	0.0644	0.247	0.218	0.212	0.128	0.0912	0.482
